Data from patent US11154482B2, “Peptide, composition and method for anti-hair graying” (Renorigin Innovation Institute Co., Ltd., priority 2020, dated 2021).

Key:
Bleaching of hair = conditions: 7.5% hydrogen peroxide, 400 μg/ml peptide, 14 days
Description: FIG. 4 provides photographs of the hairs decolored with 7.5% hydrogen peroxide. Top panel, 7.5% hydrogen peroxide only; bottom panel, 7.5% hydrogen peroxide and incubated with 400 μg/ml peptide of the invention.
Hairs were treated with 7.5% hydrogen peroxide with or without peptide of SEQ ID NO: 1 for 14 days.

[1] = tested on: B16F10 murine melanoma cells; assay: Protection against hydrogen peroxide-induced oxidative stress injury (MTT cell viability assay); assay type: cell-based; conditions: 30 μM hydrogen peroxide for 24 h, then 50 μg/ml peptide and hydrogen peroxide for 48 h
Description: (§1) B16F10 murine melanoma cells (American Type Culture Collection, Manassas, Va., USA) were cultured in Dulbecco's modified Eagle's medium (DMEM) (Thermo Scientific, Barrington, Ill., USA) with 10% fetal bovine serum (FBS) (Gibco, Grand Island, N.Y., USA) and penicillin/streptomycin (100 IU/[…]) in a humidified atmosphere containing 5% CO2 at 37° C.
(§2) Cells (1×10^3) were seeded in 96-well plates. After treatment with hydrogen peroxide and peptide of SEQ ID NO: 1, MTT was added to a final concentration of 0.5 mg/ml and incubated for 4 h at 37° C. to allow MTT reduction. The formazan crystals were then dissolved in 10% sodium dodecyl sulfate (SDS) containing 0.01 N HCl and absorbance was measured at the dual wavelengths of 570 and 630 nm with a spectrophotometer (VersaMax; Molecular Devices, Silicon Valley, Calif., USA).
Cells were exposed to 30 μM hydrogen peroxide for 24 h and then treated with 50 μg/ml peptide of SEQ ID NO: 1 and hydrogen peroxide for 48 h.

[2] = tested on: B16F10 murine melanoma cells; assay: Prevention of hydrogen peroxide-induced oxidative stress injury (MTT cell viability assay); assay type: cell-based; conditions: 50 μg/ml peptide for 24 h, then 0.5 mM hydrogen peroxide for 2 h
Description: as §1, §2
Cells were treated with 50 μg/ml peptide of SEQ ID NO: 1 for 24 h and then exposed to 0.5 mM hydrogen peroxide for 2 h.

DPPH assay = assay type: physicochemical; conditions: 50 μg/ml peptide, 0.2 mM DPPH, 16 h in the dark at room temperature, absorbance 515 nm
Description: 50 μg/ml peptide of SEQ ID NO: 1 was treated with 0.2 mM DPPH for 16 h. Data are represented as the means±SD from three independent experiments. ***p<0.001.
50 μg/ml peptide of SEQ ID NO: 1 was added in 96-well plates and incubated with 0.2 mM DPPH. Plates incubated in the dark for 16 hours at room temperature. After 16 h, the absorbance was measured at 515 nm using an automated plat reader (molecular devices).

In the case of FKCRRWQWRMKKL [Peptide of SEQ ID NO: 1], the “hair color after hydrogen peroxide immersion” value (Bleaching of hair) is reported as “hair still had bright yellow”, the “hydrogen peroxide-induced stress injury (MTT assay), protection” value [1] is reported as “attenuates hydrogen peroxide-induced stress injury” and the “hydrogen peroxide-induced stress injury (MTT assay), prevention” value [2] is reported as “attenuates hydrogen peroxide-induced stress injury”. The “DPPH radical scavenging capacity” value (DPPH assay) was “significantly decreased DPPH radical scavenging capacity”.
